Test results: US20120329985A1, “Optimal hydolysis conditions of soy protein to produce peptides with lipolysis-stimulating activity and their sequencing and use thereof” (TUNGHAI UNIVERSITY, priority 2011, published 2012)
Read-outs that look alike come from different tables or passages of the source. Blank lines part the entries; values can stand above or below the molecule they belong to. Where a SMILES comes first, the peptide text is derived from it.

Assays:
3T3-L1 adipocytes [1] = experiment: Measurement of the triglyceride residue in 3T3-L1 adipocytes; assay type: cell-based; conditions: 4 ppm fractions and synthetical peptides (FIG. 23)
Description: (§1) The precursor cells of 3T3-L1 cell are purchased from Food Industry Research and Development Institute in Taiwan. The purchased precursor cells of 3T3-L1 adipocytes are cultured in 24-wells plate with 1×10^4 cells/well. The cells are cultured with DMEM (Dulbecco's Modified Eagle Medium) containing 10% FBS (Fetal bovine serum) at 37° C. in the incubator with 5% CO2, and refresh cultured medium every two days. While the 3T3-L1 cells are filled within the culture dish, the culture medium is changed to the differentiation medium (DM) for promoting adipocytes differentiation, which is defined as day 0 post-differentiation. The differentiation medium contains 1.74 μM insulin, […] dexamethasone (DEX) and 0.5 mM isobutyl-methylxanthine (IBMX). From day 2 post-differentiation, the culture medium is exchanged to DMEM with 1.74 μM insulin and refreshed every two days until day 8 post-differentiation. On day 8 post-differentiation, the precursor cells would differentiate into mature 3T3-L1 adipocytes.
On day 11, the cultured cells are washed with PBS and lysed by adding lysis buffer. The supernatant of cell lysis is collected after centrifugation at 13000 rpm for 10 minutes. 10 μL supernatant of cell lysis is mixed with 1 ml triglyceride detecting kit (TR213) and incubated at room-temperature for 5 minutes. After the incubation, the triglyceride residue in the adipocytes could be calculated according to absorption excited by 500 nm wavelength and shown in FIG. 6. In FIG. 6, control experiment is the cells without treatment of ISP hydrolysate or any fractions.

[2] = test system: gastrointestinal enzymes (pepsin, pancreatin); experiment: Resistance of the synthetical peptides in the mimic gastrointestinal environment; conditions: pepsin 25:1, pH 2.0, 37° C., 4 hours; pancreatin 25:1, 4 hours
Description: (§2) Then adding pepsin with substrate-enzyme ratio at 25:1 and incubating for 4 hours is performed to mimic the environment in stomach. Following the incubation, the solution is neutralized by addition of 2N NaOH and heating some aliquot for 15 minutes to terminate the pepsin activity for freeze storage. The remainder is further incubated with pancreatin with substrate-enzyme ratio at 25:1 for 4 hours to mimic the intestinal environment. After termination of the enzyme activity by heating in boiled water and followed by cooling, the sample is freeze stored for the further analysis.
(§3) After temperature returned, the each frozen sample processed in the mimic gastrointestinal environment is centrifuged at 10,000×g for 40 minutes. After centrifugation, the supernatant is collected and filtrated through 0.22 μm filter, and added into the culture medium for 3T3-L1 adipocytes. On day 11 post-differentiation, the supernatant or cell extract are collected as the methods described in example 3 and example 7 for measuring the glycerol release and triglyceride residue in the adipocytes. The glycerol release and triglyceride residue in the adipocytes are calculated from the absorption excited by 500 and 520 nm wavelength.

[3] = test system: gastrointestinal enzymes (pepsin, pancreatin); conditions: pH 2
Description: as §2, §3

3T3-L1 adipocytes [4] = experiment: Measurement of the glycerol released from 3T3-L1 adipocytes; assay type: cell-based; conditions: 4 ppm fractions and synthetical peptides (FIG. 22); control basal level 312.3
Description: as §1, with “adipocytes. […]” for “adipocytes.”
30 μL of the cultured medium is collected and mixed with detecting kit (GY105) to measure the glycerol release. After reaction at room-temperature for 5 minutes, the absorption excited by 520 nm wavelength is measured by spectrophotometer to calculate the glycerol released from adipocytes.

Molecule: Ile-Ile-Ile
- Effect on triglyceride residue versus control (3T3-L1 adipocytes [1]): significantly reduce

- Bioactivity for lipolysis after gastrointestinal enzymes [2]: resistant
Molecule: CC(C)C[C@H](NC(=O)[C@H](CC(C)C)NC(=O)[C@@H](N)CC(C)C)C(=O)O [Leu-Leu-Leu] (H-Leu-Leu-Leu-OH; N-terminus and C-terminus assumed)

- Bioactivity for lipolysis after gastrointestinal enzymes [3]: resistant
Molecule: CC(C)[C@H](N)C(=O)N[C@@H](Cc1c[nH]cn1)C(=O)N[C@H](C(=O)N[C@H](C(=O)O)C(C)C)C(C)C [Val-His-Val-Val] (H-VHVV-OH; N-terminus and C-terminus assumed)

Molecule: Ile-Leu-Leu
- Glycerol release (3T3-L1 adipocytes [4]): 540.81 nmol/mg protein
- Effect on triglyceride residue versus control (3T3-L1 adipocytes [1]): significantly reduce
- Triglyceride residue (3T3-L1 adipocytes [1]; control 3.2): 1.41 μmol/mg protein
